Measurements taken from ChEMBL document CHEMBL5375962 (J Med Chem, 2023).
Converted amounts (≈) assume the structure as drawn.

Target: T1, Ketohexokinase (Homo sapiens, UniProt P50053)
T1 sequence (P50053 whole entry): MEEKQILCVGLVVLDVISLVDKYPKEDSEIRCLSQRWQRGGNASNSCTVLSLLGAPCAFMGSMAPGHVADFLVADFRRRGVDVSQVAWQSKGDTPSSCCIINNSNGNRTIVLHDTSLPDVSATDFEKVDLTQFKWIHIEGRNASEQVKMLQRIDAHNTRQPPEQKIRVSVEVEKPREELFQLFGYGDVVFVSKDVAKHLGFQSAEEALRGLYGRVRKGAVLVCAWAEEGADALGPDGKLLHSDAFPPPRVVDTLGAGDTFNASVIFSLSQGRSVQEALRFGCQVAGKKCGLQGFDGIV
Experiment: Inhibition of human KHK-C preincubated for 15 mins followed by substrate addition and measured after 20 mins in presence of ATP by Rapidfire MS analysis
Conditions: not given

| IC50 [nM] | Structure (SMILES) |
| --- | --- |
| 4 | C[C@H]1CCN1c1nc(-c2cnn(C3CN(C)C3)c2)cc(C(F)(F)F)n1 |
| 38 | C[C@H]1CCN1c1nc(-c2cnn(C3CCOCC3)c2)cc(C(F)(F)F)c1C#N |
| 6 | C[C@H]1CCN1c1nc(-c2cnn(C3CCN(C)CC3)c2)cc(C(F)(F)F)c1C#N |
| 4 | C[C@H]1CCN1c1nc(-c2cnn(C3CCNCC3)c2)cc(C(F)(F)F)c1C#N |

Tested on: Hepatocyte
Experiment: Cytotoxicity against rat Primary hepatocyte
Format: toxicity, cell-based
Conditions: hepatocytes

| Structure (SMILES) | LC20 [nM] |
| --- | --- |
| C[C@H]1CCN1c1nc(-c2cnn(C3CN(C)C3)c2)cc(C(F)(F)F)n1 | > 50000 |
| C[C@H]1CCN1c1nc(-c2cnn(C3CCOCC3)c2)cc(C(F)(F)F)c1C#N | > 50000 |
| C[C@H]1CCN1c1nc(-c2cnn(C3CCNCC3)c2)cc(C(F)(F)F)c1C#N | < 9000 |

Tested on: not listed separately
Experiment: Inhibition of mouse KHK-A
Conditions: not given

| IC50 [nM] | Structure (SMILES) |
| --- | --- |
| 40 | C[C@H]1CCN1c1nc(-c2cnn(C3CCOCC3)c2)cc(C(F)(F)F)c1C#N |
| 4 | C[C@H]1CCN1c1nc(-c2cnn(C3CCN(C)CC3)c2)cc(C(F)(F)F)c1C#N |
| 2 | C[C@H]1CCN1c1nc(-c2cnn(C3CCNCC3)c2)cc(C(F)(F)F)c1C#N |

Tested on: not listed separately
Experiment: Permeability in MDCK cells assessed as drug transport measured over 1 hr in presence of P-gp
Format: ADME, cell-based, Canis lupus familiaris
Conditions: dog

| Drug transport [%] | Structure (SMILES) |
| --- | --- |
| 22 | C[C@H]1CCN1c1nc(-c2cnn(C3CN(C)C3)c2)cc(C(F)(F)F)n1 |
| 8.7 | C[C@H]1CCN1c1nc(-c2cnn(C3CCNCC3)c2)cc(C(F)(F)F)c1C#N |

Tested on: not listed separately
Experiment: Clearance in dog hepatocytes measured per 10^6 cells
Format: ADME, cell-based, Canis lupus familiaris, Hepatocyte
Conditions: read-out: CLH

| hepatocyte CLint [µL/min/1e6 cells] | Structure (SMILES) |
| --- | --- |
| 49 | C[C@H]1CCN1c1nc(-c2cnn(C3CN(C)C3)c2)cc(C(F)(F)F)n1 |
| 4.9 | C[C@H]1CCN1c1nc(-c2cnn(C3CCNCC3)c2)cc(C(F)(F)F)c1C#N |

Target: T1, Ketohexokinase
Experiment: Inhibition of human KHK-A preincubated for 15 mins followed by substrate addition and measured after 20 mins in presence of ATP by Rapidfire MS analysis
Conditions: not given

| IC50 [nM] | Structure (SMILES) |
| --- | --- |
| 5 | C[C@H]1CCN1c1nc(-c2cnn(C3CN(C)C3)c2)cc(C(F)(F)F)n1 |
| 33 | C[C@H]1CCN1c1nc(-c2cnn(C3CCOCC3)c2)cc(C(F)(F)F)c1C#N |
| 7 | C[C@H]1CCN1c1nc(-c2cnn(C3CCN(C)CC3)c2)cc(C(F)(F)F)c1C#N |
| 4 | C[C@H]1CCN1c1nc(-c2cnn(C3CCNCC3)c2)cc(C(F)(F)F)c1C#N |

Tested on: not listed separately
Experiment: Clearance in rat hepatocytes measured per 10^6 cells
Format: ADME, cell-based, Hepatocyte
Conditions: read-out: CLH

| hepatocyte CLint [µL/min/1e6 cells] | Structure (SMILES) |
| --- | --- |
| 29 | C[C@H]1CCN1c1nc(-c2cnn(C3CN(C)C3)c2)cc(C(F)(F)F)n1 |
| 3.7 | C[C@H]1CCN1c1nc(-c2cnn(C3CCNCC3)c2)cc(C(F)(F)F)c1C#N |

Target: T1, Ketohexokinase
Experiment: Inhibition of KHK in human HepG2 cells incubated for 3 hrs by Rapidfire MS analysis
Format: cell-based
Conditions: not given

| IC50 [nM] | Structure (SMILES) |
| --- | --- |
| 3 | C[C@H]1CCN1c1nc(-c2cnn(C3CN(C)C3)c2)cc(C(F)(F)F)n1 |
| 118 | C[C@H]1CCN1c1nc(-c2cnn(C3CCOCC3)c2)cc(C(F)(F)F)c1C#N |
| 20 | C[C@H]1CCN1c1nc(-c2cnn(C3CCN(C)CC3)c2)cc(C(F)(F)F)c1C#N |
| 5 | C[C@H]1CCN1c1nc(-c2cnn(C3CCNCC3)c2)cc(C(F)(F)F)c1C#N |

Tested on: not listed separately
Experiment: Metabolic stability in human liver microsomes assessed as compound degradation measured after 30 mins
Format: ADME, Microsome
Conditions: read-out: Drug degradation

| metabolised at 0.5 h [%] | Structure (SMILES) |
| --- | --- |
| 20 | C[C@H]1CCN1c1nc(-c2cnn(C3CN(C)C3)c2)cc(C(F)(F)F)n1 |
| 49 | C[C@H]1CCN1c1nc(-c2cnn(C3CCOCC3)c2)cc(C(F)(F)F)c1C#N |
| 11 | C[C@H]1CCN1c1nc(-c2cnn(C3CCN(C)CC3)c2)cc(C(F)(F)F)c1C#N |
| 0 | C[C@H]1CCN1c1nc(-c2cnn(C3CCNCC3)c2)cc(C(F)(F)F)c1C#N |

Tested on: not listed separately
Experiment: Thermodynamic solubility of the compound […] at pH 7.4
Format: physicochemical
Conditions: read-out: Therm_solubility

| solubility thermodynamic [mg/mL] | Structure (SMILES) |
| --- | --- |
| 0.011 (≈ 31.2 µM) | C[C@H]1CCN1c1nc(-c2cnn(C3CN(C)C3)c2)cc(C(F)(F)F)n1 |
| 0.031 (≈ 79.2 µM) | C[C@H]1CCN1c1nc(-c2cnn(C3CCOCC3)c2)cc(C(F)(F)F)c1C#N |
| 0.011 (≈ 27.2 µM) | C[C@H]1CCN1c1nc(-c2cnn(C3CCN(C)CC3)c2)cc(C(F)(F)F)c1C#N |
| 0.039 (≈ 99.9 µM) | C[C@H]1CCN1c1nc(-c2cnn(C3CCNCC3)c2)cc(C(F)(F)F)c1C#N |

Tested on: not listed separately
Experiment: Metabolic stability in rat liver microsomes assessed as compound degradation measured after 30 mins
Format: ADME, Microsome
Conditions: read-out: Drug degradation

| metabolised at 0.5 h [%] | Structure (SMILES) |
| --- | --- |
| 86 | C[C@H]1CCN1c1nc(-c2cnn(C3CN(C)C3)c2)cc(C(F)(F)F)n1 |
| 98 | C[C@H]1CCN1c1nc(-c2cnn(C3CCOCC3)c2)cc(C(F)(F)F)c1C#N |
| 33 | C[C@H]1CCN1c1nc(-c2cnn(C3CCN(C)CC3)c2)cc(C(F)(F)F)c1C#N |
| 2 | C[C@H]1CCN1c1nc(-c2cnn(C3CCNCC3)c2)cc(C(F)(F)F)c1C#N |

Tested on: not listed separately
Experiment: Metabolic stability in mouse liver microsomes assessed as compound degradation measured after 30 mins
Format: ADME, Microsome
Conditions: read-out: Drug degradation

| metabolised at 0.5 h [%] | Structure (SMILES) |
| --- | --- |
| 87 | C[C@H]1CCN1c1nc(-c2cnn(C3CN(C)C3)c2)cc(C(F)(F)F)n1 |
| 98 | C[C@H]1CCN1c1nc(-c2cnn(C3CCOCC3)c2)cc(C(F)(F)F)c1C#N |
| 86 | C[C@H]1CCN1c1nc(-c2cnn(C3CCN(C)CC3)c2)cc(C(F)(F)F)c1C#N |
| 24 | C[C@H]1CCN1c1nc(-c2cnn(C3CCNCC3)c2)cc(C(F)(F)F)c1C#N |

Tested on: not listed separately
Experiment: Clearance in human hepatocytes measured per 10^6 cells
Format: ADME, cell-based, Hepatocyte
Conditions: read-out: CLH

| hepatocyte CLint [µL/min/1e6 cells] | Structure (SMILES) |
| --- | --- |
| 5 | C[C@H]1CCN1c1nc(-c2cnn(C3CN(C)C3)c2)cc(C(F)(F)F)n1 |
| 3.5 | C[C@H]1CCN1c1nc(-c2cnn(C3CCNCC3)c2)cc(C(F)(F)F)c1C#N |

Tested on: not listed separately
Experiment: Metabolic stability in dog liver microsomes assessed as compound degradation measured after 30 mins
Format: ADME, Canis lupus familiaris, Microsome
Conditions: read-out: Drug degradation

| metabolised at 0.5 h [%] | Structure (SMILES) |
| --- | --- |
| 100 | C[C@H]1CCN1c1nc(-c2cnn(C3CN(C)C3)c2)cc(C(F)(F)F)n1 |
| 98 | C[C@H]1CCN1c1nc(-c2cnn(C3CCOCC3)c2)cc(C(F)(F)F)c1C#N |
| 36 | C[C@H]1CCN1c1nc(-c2cnn(C3CCN(C)CC3)c2)cc(C(F)(F)F)c1C#N |
| 11 | C[C@H]1CCN1c1nc(-c2cnn(C3CCNCC3)c2)cc(C(F)(F)F)c1C#N |

Tested on: not listed separately
Experiment: Inhibition of mouse KHK-C
Conditions: not given

| IC50 [nM] | Structure (SMILES) |
| --- | --- |
| 2 | C[C@H]1CCN1c1nc(-c2cnn(C3CN(C)C3)c2)cc(C(F)(F)F)n1 |
| 61 | C[C@H]1CCN1c1nc(-c2cnn(C3CCOCC3)c2)cc(C(F)(F)F)c1C#N |
| 14 | C[C@H]1CCN1c1nc(-c2cnn(C3CCN(C)CC3)c2)cc(C(F)(F)F)c1C#N |
| 6 | C[C@H]1CCN1c1nc(-c2cnn(C3CCNCC3)c2)cc(C(F)(F)F)c1C#N |
